According to patent publication US20240116985A1, “STAPLED PEPTIDES AND METHODS THEREOF” (priority 2020, published 2024):

Experiments:
[1] = target: T1, full-length beta-Catenin (Uniprot ID P35222) (Homo sapiens, UniProt P35222); assay: Fluorescence polarization IC50 (beta-catenin / 5FAM-TCF4 10-53 competition); format: binding; conditions: fluorescence polarization; read-out: beta-Catenin FP IC50
T1 construct: 10 nM full-length beta-Catenin (Uniprot ID P35222)
T1 sequence (P35222 1-781): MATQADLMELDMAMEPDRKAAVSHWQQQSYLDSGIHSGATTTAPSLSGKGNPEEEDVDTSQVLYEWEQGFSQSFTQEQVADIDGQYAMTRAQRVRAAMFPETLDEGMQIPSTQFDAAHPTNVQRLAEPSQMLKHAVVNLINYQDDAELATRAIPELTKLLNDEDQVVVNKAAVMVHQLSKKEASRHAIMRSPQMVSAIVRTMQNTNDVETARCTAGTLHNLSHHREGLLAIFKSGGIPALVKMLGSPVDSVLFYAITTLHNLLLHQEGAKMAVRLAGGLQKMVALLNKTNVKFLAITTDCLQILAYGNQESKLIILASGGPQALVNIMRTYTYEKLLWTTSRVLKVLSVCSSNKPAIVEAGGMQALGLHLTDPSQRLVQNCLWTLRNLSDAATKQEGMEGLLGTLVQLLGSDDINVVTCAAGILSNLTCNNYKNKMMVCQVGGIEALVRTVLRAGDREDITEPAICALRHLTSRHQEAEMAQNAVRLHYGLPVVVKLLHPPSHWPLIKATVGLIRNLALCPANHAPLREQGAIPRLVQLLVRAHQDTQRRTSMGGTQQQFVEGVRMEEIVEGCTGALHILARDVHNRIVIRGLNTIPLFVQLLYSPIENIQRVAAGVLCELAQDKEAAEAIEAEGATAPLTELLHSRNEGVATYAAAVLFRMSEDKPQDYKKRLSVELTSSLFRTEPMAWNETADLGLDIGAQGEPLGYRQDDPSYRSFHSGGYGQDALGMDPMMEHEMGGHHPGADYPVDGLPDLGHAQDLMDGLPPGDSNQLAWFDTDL

[2] = target: T2, beta-catenin/TCF4 engagement (Homo sapiens, UniProt P35222); assay: Nano-BRET target engagement assay (B-cat-Halo & TCF4-Luc in HEK293 cells); format: cell-based; conditions: read-out: NanoBRET Abs IC50
T2 construct: expressed in transfected cells; host or cells: HEK293
T2 sequence (P35222 1-781): T1 sequence (P35222 1-781)

Row | IC50 [1] | IC50 [2] | Structure (SMILES)
1 | 26 nM | 9700 nM | CC(=O)N1CCC[C@]12CC=CCCCC1(CCCC=CCCCOC(=O)N3CC[C@@](C(=O)N[C@@H](Cc4ccccc4Cl)C(=O)N[C@@H](Cc4csc5ccccc45)C(=O)N[C@H](C)C(N)=O)(C3)NC(=O)[C@H](C)NC(=O)[C@H](Cc3ccccc3)NC(=O)[C@H](C)NC(=O)[C@H](C)NC(=O)[C@H](Cc3cccc(C(=O)O)c3)NC(=O)[C@H](CC(=O)O)NC1=O)NC(=O)[C@H](CC(C)(C)C)NC(=O)[C@H](CC(=O)O)NC2=O (stereo partly drawn) [I-2026, Ac-PL3-Asp-Npg-B5-Asp-3COOHF-Ala-Ala-Phe-Ala-PyrS2-2C1F-BztA-dAla-NH2]
2 | 13 nM | 4100 nM | CC(=O)N1CCC[C@]12CC=CCCCC1(CCCC=CCCCOC(=O)N3CC[C@@](C(=O)N[C@@H](Cc4ccccc4Cl)C(=O)N[C@@H](Cc4csc5ccccc45)C(=O)N[C@@H](C)C(N)=O)(C3)NC(=O)[C@H](CO)NC(=O)[C@H](Cc3ccccc3)NC(=O)[C@H](C)NC(=O)[C@H](C)NC(=O)[C@H](Cc3cccc(C(=O)O)c3)NC(=O)[C@H](CC(=O)O)NC1=O)NC(=O)[C@H](CC(C)(C)C)NC(=O)[C@H](CC(=O)O)NC2=O (stereo partly drawn) [I-2027, Ac-PL3-Asp-Npg-B5-Asp-3COOHF-Ala-Ala-Phe-Ser-PyrS2-2C1F-BztA-Ala-NH2]
3 | 32 nM | 17600 nM | CC(=O)N1CCC[C@]12CC=CCCCC1(CCCC=CCCCOC(=O)N3CC[C@@](C(=O)N[C@@H](Cc4ccccc4Cl)C(=O)N[C@@H](Cc4csc5ccccc45)C(=O)N[C@H](C(N)=O)C(C)C)(C3)NC(=O)[C@H](CO)NC(=O)[C@H](Cc3ccccc3)NC(=O)[C@H](C)NC(=O)[C@H](C)NC(=O)[C@H](Cc3cccc(C(=O)O)c3)NC(=O)[C@H](CC(=O)O)NC1=O)NC(=O)[C@H](CC(C)(C)C)NC(=O)[C@H](CC(=O)O)NC2=O (stereo partly drawn) [I-2028, Ac-PL3-Asp-Npg-B5-Asp-3COOHF-Ala-Ala-Phe-Ser-PyrS2-2C1F-BztA-Val-NH2]
4 | 22 nM | 3900 nM | CC(=O)N1CCC[C@]12CC=CCCCC1(CCCC=CCCCOC(=O)N3CC[C@@](C(=O)N[C@@H](Cc4ccccc4Cl)C(=O)N[C@@H](Cc4csc5ccccc45)C(=O)N[C@H](C)C(N)=O)(C3)NC(=O)[C@H](CO)NC(=O)[C@H](Cc3ccccc3)NC(=O)[C@H](C)NC(=O)[C@H](C)NC(=O)[C@H](Cc3cccc(C(=O)O)c3)NC(=O)[C@H](CC(=O)O)NC1=O)NC(=O)[C@H](CC(C)(C)C)NC(=O)[C@H](CC(=O)O)NC2=O (stereo partly drawn) [I-2030, Ac-PL3-Asp-Npg-B5-Asp-3COOHF-Ala-Ala-Phe-Ser-PyrS2-2C1F-BztA-dAla-NH2]
5 | 11 nM | 4700 nM | CC(=O)N1CCC[C@]12CC=CCCCC1(CCCC=CCCCOC(=O)N3CC[C@@](C(=O)N[C@@H](Cc4ccccc4Cl)C(=O)N[C@@H](Cc4csc5ccccc45)C(=O)N[C@@H](C)C(N)=O)(C3)NC(=O)[C@H](CC(N)=O)NC(=O)[C@H](Cc3ccccc3)NC(=O)[C@H](C)NC(=O)[C@H](C)NC(=O)[C@H](Cc3cccc(C(=O)O)c3)NC(=O)[C@H](CC(=O)O)NC1=O)NC(=O)[C@H](CC(C)(C)C)NC(=O)[C@H](CC(=O)O)NC2=O (stereo partly drawn) [I-2031, Ac-PL3-Asp-Npg-B5-Asp-3COOHF-Ala-Ala-Phe-Asn-PyrS2-2C1F-BztA-Ala-NH2]
6 | 11 nM | 11800 nM | CC(=O)N1CCC[C@]12CC=CCCCC1(CCCC=CCCCOC(=O)N3CC[C@@](C(=O)N[C@@H](Cc4ccccc4Cl)C(=O)N[C@@H](Cc4csc5ccccc45)C(=O)N[C@@H](CC(N)=O)C(N)=O)(C3)NC(=O)[C@H](CO)NC(=O)[C@H](Cc3ccccc3)NC(=O)[C@H](C)NC(=O)[C@H](C)NC(=O)[C@H](Cc3cccc(C(=O)O)c3)NC(=O)[C@H](CC(=O)O)NC1=O)NC(=O)[C@H](CC(C)(C)C)NC(=O)[C@H](CC(=O)O)NC2=O (stereo partly drawn) [I-2038, Ac-PL3-Asp-Npg-B5-Asp-3COOHF-Ala-Ala-Phe-Ser-PyrS2-2C1F-BztA-Asn-NH2]
7 | 9 nM | 10500 nM | CC(=O)N1CCC[C@]12CC=CCCCC1(CCCC=CCCCOC(=O)N3CC[C@@](C(=O)N[C@@H](Cc4ccccc4Cl)C(=O)N[C@@H](Cc4csc5ccccc45)C(=O)N[C@@H](CC(N)=O)C(N)=O)(C3)NC(=O)[C@H](CO)NC(=O)[C@H](Cc3ccccc3)NC(=O)[C@H](C)NC(=O)[C@H](C)NC(=O)[C@H](Cc3cccc(C(=O)O)c3)NC(=O)[C@H](CC(=O)O)NC1=O)NC(=O)[C@H](CC(C)(C)C)NC(=O)[C@H](CC(=O)O)NC2=O (stereo partly drawn) [I-2039, Ac-PL3-Asp-Npg-B5-Asp-3COOHF-Ala-Ala-Phe-Ser-PyrS2-2C1F-BztA-Asn-NH2]

The remaining lines, values behind:

Row | Structure (SMILES) | IC50 [1] | IC50 [2]
8 | CC(=O)N1CCC[C@]12CC=CCCCC1(CCCC=CCCCOC(=O)N3CC[C@@](C(=O)N[C@@H](Cc4ccccc4Cl)C(=O)N[C@@H](Cc4csc5ccccc45)C(=O)N[C@H](C(N)=O)C(C)C)(C3)NC(=O)[C@H](C)NC(=O)[C@H](Cc3ccccc3)NC(=O)[C@H](C)NC(=O)[C@H](C)NC(=O)[C@H](Cc3cccc(C(=O)O)c3)NC(=O)[C@H](CC(=O)O)NC1=O)NC(=O)[C@H](CC(C)(C)C)NC(=O)[C@H](CC(=O)O)NC2=O (stereo partly drawn) [I-2024, Ac-PL3-Asp-Npg-B5-Asp-3COOHF-Ala-Ala-Phe-Ala-PyrS2-2C1F-BztA-Val-NH2] | 78 nM | 17900 nM
9 | CC(=O)N1CCC[C@]12CC=CCCCC1(CCCC=CCCCOC(=O)N3CC[C@@](C(=O)N[C@@H](Cc4ccccc4Cl)C(=O)N[C@@H](Cc4csc5ccccc45)C(=O)N[C@@H](Cc4ccccc4)C(N)=O)(C3)NC(=O)[C@H](CO)NC(=O)[C@H](Cc3ccccc3)NC(=O)[C@H](C)NC(=O)[C@H](C)NC(=O)[C@H](Cc3cccc(C(=O)O)c3)NC(=O)[C@H](CC(=O)O)NC1=O)NC(=O)[C@H](CC(C)(C)C)NC(=O)[C@H](CC(=O)O)NC2=O (stereo partly drawn) [I-2029, Ac-PL3-Asp-Npg-B5-Asp-3COOHF-Ala-Ala-Phe-Ser-PyrS2-2C1F-BztA-Phe-NH2] | 35 nM | 26200 nM
10 | CC(=O)N1CCC[C@]12CC=CCCCC1(CCCC=CCCCOC(=O)N3CC[C@@](C(=O)N[C@@H](Cc4ccccc4Cl)C(=O)N[C@@H](Cc4csc5ccccc45)C(=O)N[C@H](C(N)=O)C(C)C)(C3)NC(=O)[C@H](CC(N)=O)NC(=O)[C@H](Cc3ccccc3)NC(=O)[C@H](C)NC(=O)[C@H](C)NC(=O)[C@H](Cc3cccc(C(=O)O)c3)NC(=O)[C@H](CC(=O)O)NC1=O)NC(=O)[C@H](CC(C)(C)C)NC(=O)[C@H](CC(=O)O)NC2=O (stereo partly drawn) [I-2032, Ac-PL3-Asp-Npg-B5-Asp-3COOHF-Ala-Ala-Phe-Asn-PyrS2-2C1F-BztA-Val-NH2] | 16 nM | 20900 nM
11 | CC(=O)N1CCC[C@]12CC=CCCCC1(CCCC=CCCCOC(=O)N3CC[C@@](C(=O)N[C@@H](Cc4ccccc4Cl)C(=O)N[C@@H](Cc4csc5ccccc45)C(=O)N[C@@H](Cc4ccccc4)C(N)=O)(C3)NC(=O)[C@H](CC(N)=O)NC(=O)[C@H](Cc3ccccc3)NC(=O)[C@H](C)NC(=O)[C@H](C)NC(=O)[C@H](Cc3cccc(C(=O)O)c3)NC(=O)[C@H](CC(=O)O)NC1=O)NC(=O)[C@H](CC(C)(C)C)NC(=O)[C@H](CC(=O)O)NC2=O (stereo partly drawn) [I-2033, Ac-PL3-Asp-Npg-B5-Asp-3COOHF-Ala-Ala-Phe-Asn-PyrS2-2C1F-BztA-Phe-NH2] | 30 nM | 9500 nM
12 | CC(=O)N1CCC[C@]12CC=CCCCC1(CCCC=CCCCOC(=O)N3CC[C@@](C(=O)N[C@@H](Cc4ccccc4Cl)C(=O)N[C@@H](Cc4csc5ccccc45)C(=O)N[C@@H](CC(N)=O)C(N)=O)(C3)NC(=O)[C@H](C)NC(=O)[C@H](Cc3ccccc3)NC(=O)[C@H](C)NC(=O)[C@H](C)NC(=O)[C@H](Cc3cccc(C(=O)O)c3)NC(=O)[C@H](CC(=O)O)NC1=O)NC(=O)[C@H](CC(C)(C)C)NC(=O)[C@H](CC(=O)O)NC2=O (stereo partly drawn) [I-2035, Ac-PL3-Asp-Npg-B5-Asp-3COOHF-Ala-Ala-Phe-Ala-PyrS2-2C1F-BztA-Asn-NH2] | 16 nM | 14500 nM
13 | CC(=O)N1CCC[C@]12CC=CCCCC1(CCCC=CCCCOC(=O)N3CC[C@@](C(=O)N[C@@H](Cc4ccccc4Cl)C(=O)N[C@@H](Cc4csc5ccccc45)C(=O)N[C@@H](CC(N)=O)C(N)=O)(C3)NC(=O)[C@H](C)NC(=O)[C@H](Cc3ccccc3)NC(=O)[C@H](C)NC(=O)[C@H](C)NC(=O)[C@H](Cc3cccc(C(=O)O)c3)NC(=O)[C@H](CC(=O)O)NC1=O)NC(=O)[C@H](CC(C)(C)C)NC(=O)[C@H](CC(=O)O)NC2=O (stereo partly drawn) [I-2036, Ac-PL3-Asp-Npg-B5-Asp-3COOHF-Ala-Ala-Phe-Ala-PyrS2-2C1F-BztA-Asn-NH2] | 19 nM | 12900 nM
14 | CC(=O)N1CCC[C@]12CC=CCCCC1(CCCC=CCCCOC(=O)N3CC[C@@](C(=O)N[C@@H](Cc4ccccc4Cl)C(=O)N[C@@H](Cc4csc5ccccc45)C(=O)N[C@@H](CC(N)=O)C(N)=O)(C3)NC(=O)[C@H](Cc3ccccc3)NC(=O)[C@H](Cc3ccccc3)NC(=O)[C@H](C)NC(=O)[C@H](C)NC(=O)[C@H](Cc3cccc(C(=O)O)c3)NC(=O)[C@H](CC(=O)O)NC1=O)NC(=O)[C@H](CC(C)(C)C)NC(=O)[C@H](CC(=O)O)NC2=O (stereo partly drawn) [I-2037, Ac-PL3-Asp-Npg-B5-Asp-3COOHF-Ala-Ala-Phe-Phe-PyrS2-2C1F-BztA-Asn-NH2] | 17 nM | 5000 nM
